Reference: the supplement of paper PMC10307832

What was measured:
Assay in all cases: relative viability (nuclei count vs DMSO), 5 days (fraction); higher = more cells survive
Avagacestat + OSI-027 = compound: NC(=O)[C@@H](CCC(F)(F)F)N(Cc1ccc(-c2ncon2)cc1F)S(=O)(=O)c1ccc(Cl)cc1 [Avagacestat] + COc1cccc2cc(-c3nc([C@H]4CC[C@H](C(=O)O)CC4)n4ncnc(N)c34)[nH]c12 [OSI-027] (partner 0.5 µM)
How it was run: (§1)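 Medians of duplicate plates are given as relative viability. That measure is the nuclei count in treated wells divided by the count in vehicle wells. Counts were taken on 4× images of lung cancer cell lines in 1536-well plates, 5 days after pin-tool dosing the day after seeding with one drug alone or a fixed anchor-drug dose plus five library-drug doses (not always all listed) in √10 steps.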

Avagacestat + Lapatinib = compound: NC(=O)[C@@H](CCC(F)(F)F)N(Cc1ccc(-c2ncon2)cc1F)S(=O)(=O)c1ccc(Cl)cc1 [Avagacestat] + CS(=O)(=O)CCNCc1ccc(-c2ccc3ncnc(Nc4ccc(OCc5cccc(F)c5)c(Cl)c4)c3c2)o1 [Lapatinib] (partner 2 µM)
How it was run: as §1

Avagacestat + Linsitinib = compound: NC(=O)[C@@H](CCC(F)(F)F)N(Cc1ccc(-c2ncon2)cc1F)S(=O)(=O)c1ccc(Cl)cc1 [Avagacestat] + C[C@]1(O)C[C@@H](c2nc(-c3ccc4ccc(-c5ccccc5)nc4c3)c3c(N)nccn32)C1 [Linsitinib] (partner 1 µM)
How it was run: as §1

Avagacestat + Alpelisib = compound: NC(=O)[C@@H](CCC(F)(F)F)N(Cc1ccc(-c2ncon2)cc1F)S(=O)(=O)c1ccc(Cl)cc1 [Avagacestat] + Cc1nc(NC(=O)N2CCC[C@H]2C(N)=O)sc1-c1ccnc(C(C)(C)C(F)(F)F)c1 [Alpelisib] (partner 2 µM)
How it was run: as §1

Cell Line	relative viability (Avagacestat + OSI-027; first compound 0.08 µM)	relative viability (Avagacestat + OSI-027; first compound 0.253 µM)	relative viability (Avagacestat + OSI-027; first compound 0.8 µM)	relative viability (Avagacestat + OSI-027; first compound 2.53 µM)	relative viability (Avagacestat + OSI-027; first compound 8 µM)	relative viability (Avagacestat + Lapatinib; first compound 0.08 µM)	relative viability (Avagacestat + Lapatinib; first compound 0.253 µM)	relative viability (Avagacestat + Lapatinib; first compound 0.8 µM)	relative viability (Avagacestat + Lapatinib; first compound 2.53 µM)	relative viability (Avagacestat + Lapatinib; first compound 8 µM)	relative viability (Avagacestat + Linsitinib; first compound 0.08 µM)	relative viability (Avagacestat + Linsitinib; first compound 0.253 µM)	relative viability (Avagacestat + Linsitinib; first compound 0.8 µM)	relative viability (Avagacestat + Linsitinib; first compound 2.53 µM)	relative viability (Avagacestat + Linsitinib; first compound 8 µM)	relative viability (Avagacestat + Alpelisib; first compound 0.08 µM)	relative viability (Avagacestat + Alpelisib; first compound 0.253 µM)	relative viability (Avagacestat + Alpelisib; first compound 0.8 µM)	relative viability (Avagacestat + Alpelisib; first compound 2.53 µM)	relative viability (Avagacestat + Alpelisib; first compound 8 µM)
HCC-44	0.474	0.457	0.673	0.528	0.499	1.23	0.893	1.17	1.03	0.98	0.703	0.709	0.681	0.504	0.598	0.939	0.746	0.8	0.667	0.645
HCC-78	0.381	0.4	0.349	0.373	0.401	0.556	0.696	1.48	0.7	0.579	0.568	0.54	0.706	0.396	0.406	0.299	0.358	0.347	0.269	0.321
HCC-366	1.07	1.49	1.01	0.772	0.872	1.6	1.26	1.23	1.05	1.21	1.06	0.782	0.835	0.471	0.373	0.749	0.679	0.565	0.361	0.308
HCC-827	0.892	0.688	0.818	0.668	0.703	0.197	0.178	0.177	0.169	0.191	1.03	1.02	0.931	0.995	1.08	1.04	0.984	1.05	0.874	0.972
HOP-62	1.16	0.895	0.737	0.609	0.63	1.02	0.943	0.983	0.996	1.01	1.06	0.852	0.992	0.919	0.94	1	0.908	0.971	0.94	0.889
IA-LM	–	–	–	–	–	1.8	1.39	1.38	1	1.07	1.24	0.859	1.11	1.01	0.984	1.09	1.62	1.74	1.43	1.16
LC-2-ad	0.796	0.898	0.855	0.795	0.739	1.04	1.16	1.03	0.996	0.867	0.819	0.896	0.87	0.778	0.807	0.798	0.707	0.769	0.81	0.788
LCLC-97TM1	0.562	0.674	0.424	0.694	0.518	0.771	1.29	0.977	0.703	0.86	0.161	0.212	0.155	0.151	0.163	0.265	0.224	0.185	0.186	0.218
LCLC-103H	0.488	0.531	0.438	0.409	0.406	–	–	–	–	–	1.08	1.01	1.24	1.01	0.877	0.983	0.939	1.01	0.842	0.753
LK-2	0.189	0.206	0.162	0.181	0.212	1.13	0.985	0.785	0.521	0.76	0.966	0.49	0.386	–	0.505	1.51	1.61	0.949	1.02	1
LOU-NH91	0.688	0.656	0.789	0.723	0.716	0.816	0.788	0.831	0.692	0.776	0.966	0.883	1.01	0.786	0.929	0.712	0.724	0.779	0.608	0.738
LU99A	0.285	0.28	0.278	0.286	0.266	1.01	1.2	1.25	1.06	1.1	0.598	0.561	0.63	0.563	0.644	0.659	0.498	0.529	0.51	0.483
NCI-H441	0.859	0.72	0.704	0.589	0.462	–	–	–	–	–	0.697	0.565	0.564	0.49	0.461	0.92	0.761	1.05	0.973	0.986
NCI-H522	0.823	0.728	0.655	0.689	0.725	–	–	–	–	–	–	–	–	–	–	–	–	–	–	–
NCI-H1299	–	–	–	–	–	1.03	0.984	0.988	0.924	0.926	0.987	1.12	1	0.988	0.926	1.1	1.18	1.08	1.02	0.886
NCI-H1648	0.266	0.273	0.271	0.255	0.232	–	–	–	–	–	–	–	–	–	–	–	–	–	–	–
NCI-H1650	0.49	0.671	0.643	0.782	0.67	1.02	0.825	0.695	0.884	0.853	–	–	–	–	–	–	–	–	–	–
NCI-H1703	–	–	–	–	–	0.986	1.28	1.44	1.02	1.03	0.982	0.768	0.854	0.784	0.93	0.444	0.387	0.405	0.378	0.385
NCI-H2170	0.862	0.8	0.851	0.721	0.643	0.297	0.265	0.291	0.275	0.296	–	–	–	–	–	1.02	0.843	0.883	0.751	0.721
NCI-H2342	0.589	0.597	0.674	0.602	0.572	–	–	–	–	–	–	–	–	–	–	–	–	–	–	–
SW 900	0.756	0.731	0.581	0.573	0.653	–	–	–	–	–	–	–	–	–	–	–	–	–	–	–
